Experimental data taken from BindingDB's records for PubMed 39892094 (University of Lubeck and University Medical Center …).

Key:
[1] = Reversal of ABCB1-mediated multidrug resistance in human A2780 ADR cells assessed as increase in doxorubicin-mediated cytotoxicity incubated for 72 hrs in presence of doxorubicin by MTT assay
[2] = Reversal of ABCG2 (unknown origin)-mediated multidrug resistance transfected in dog MDCK-II-BCRP cells assessed as increase in SN-38-mediated cytotoxicity incubated for 72 hrs in presence of SN-38 by MTT assay
[3] = Inhibition of MCT-1 in human A549 cells assessed as potentiation of 3-BP-mediated cytotoxicity by measuring decrease in cell viability incubated for 72 hrs in presence of 3-BP by MTT assay
[4] = Reversal of ABCC1-mediated multidrug resistance in human NCI-H69AR cells assessed as increase in doxorubicin-mediated cytotoxicity incubated for 72 hrs in presence of doxorubicin by MTT assay

Row | Structure (SMILES) | EC50 [1] | EC50 [2] | IC50 [3] | EC50 [4]
1 | O=C(Cn1nc(C(=O)Nc2cccnc2)c2ccccc21)Nc1ccc(Cl)cc1 | 4.67 µM | 1.05 µM | 3.32 µM | 6.86 µM
2 | COc1cccc(NC(=O)Cn2nc(C(=O)Nc3cccc(OC)c3)c3ccccc32)c1 | 2.01 µM |  |  | 8.55 µM
3 | COc1cccc(NC(=O)c2nn(CC(=O)Nc3ccccc3OC)c3ccccc23)c1 | 3.34 µM | 0.603 µM |  | 5.53 µM
4 | O=C(Cn1nc(C(=O)Nc2ccccn2)c2ccccc21)Nc1cc(Cl)ccc1Cl | 0.089 µM | 0.326 µM | 1.89 µM | 33.1 µM
